Laboratory results as given in patent US20150064710A1, “METHOD FOR INHIBITING CELL GROWTH, NUCLEIC ACID MOLECULE HAVING RNA INTERFERENCE EFFECT ON NEK10 VARIANT GENE, AND ANTICANCER AGENT” (Nippon Kayaku Kabushiki Kaisha, priority 2011, published 2015).

How the values were obtained:
[1] = test system: MDA-MB-231 cells; experiment: Growth inhibitory effect of NEK10 siRNA on cancer cells (methylene blue assay); format: cell-based; conditions: MDA-MB-231 breast cancer cells; 72 hours after siRNA transfection; absorbance at 660 nm; control siRNA treatment group of first experiment = 100
Method: NEK10 siRNA #1 and NEK10 siRNA #2 were confirmed to have growth inhibitory effects on cancer cells. Namely, a study was conducted by methylene blue assay to determine whether cell growth is inhibited by knocking down NEK10 variant gene by transfecting the cells with NEK10 siRNA #1 and NEK10 siRNA #2.
MDA-MB-231 cells were transfected with each siRNA in the same manner as previously described (Confirmation of Expression Inhibitory Effect on NEK10 Variant mRNA) followed by culturing for 72 hours after transfection. After culturing, the medium was removed followed by the addition of 1000 μL of methanol and allowing to stand for 2 minutes at room temperature to fix the cells. After removing the methanol, 1000 μL of dye solution (0.05% methylene blue solution) were added followed by dyeing for 30 minutes. After washing three times with 4 mL of distilled water, 2 mL of a 3% HCl solution were added followed by measurement of the absorbance of methylene blue at 660 nm using a microplate reader (BioRad).
The experiment was conducted in triplicate and the same experiment was repeated three times. The average triplicate value of the control siRNA treatment group of the first experiment was used as a control, the cell growth rates (%) were calculated according to the following Equation (5) using the average triplicate values of the siRNA treatment group of each experiment. […]

[2] = test system: NEK10 variant mRNA; experiment: Expression inhibitory effect on NEK10 variant mRNA (real-time PCR using SYBR Green after siRNA transfection); format: cell-based, human; conditions: breast cancer cell line MDA-MB-231; siRNA (20 nM) with Lipofectamine RNAiMAX; 72 hours culture after transfection; first control siRNA treatment group = 100
From the text: After carrying out siRNA treatment by transfecting cells with siRNA consisting of the combination of sense RNA consisting of the base sequence represented by SEQ ID NO: 2 and antisense RNA consisting of the base sequence represented by SEQ ID NO: 3 (to be referred to as NEK10 siRNA #1) and siRNA consisting of the combination of sense RNA consisting of the base sequence represented by SEQ ID NO: 4 and antisense RNA consisting of the base sequence represented by SEQ ID NO: 5 (to be referred to as NEK10 siRNA #2), NEK10 variant mRNA was measured by real-time PCR using SYBR™ Green to study the knockdown effects on NEK10 variant mRNA.
Breast cancer cell line MDA-MB-231, which was confirmed to express NEK10 variant mRNA in Example 1, was transfected with control siRNA, NEK10 siRNA #1 or NEK10 siRNA #2, and NEK10 variant mRNA following siRNA treatment was measured by real-time PCR using SYBR™ Green to study the knockdown effects on NEK10 variant mRNA of each siRNA. The control siRNA was purchased from Invitrogen, and siRNA synthesized by Invitrogen was used for NEK10 siRNA #1 and NEK10 siRNA #2. […]
Using 500 ng of the purified RNA, cDNA was prepared in the same manner as Reference Example 1 using the reverse transcriptase Superscript III (Invitrogen). Ct values were measured in the same manner as Reference Example 1 using 1 μL of the resulting cDNA as template. […]

Substance | cell growth rate [1] [%] | percentage of NEK10 mRNA versus the control [2] [%]
NEK10 siRNA #2: siRNA of sense RNA SEQ ID NO: 4 (5'-UCUGCCUUGUUUGUUCACCACUAUU-3') and antisense RNA SEQ ID NO: 5 (antisense AAUAGUGGUGAACAAACAAGGCAGA; RNA, backbone not given here) | 58±17 | 86±7.4
NEK10 siRNA #1: siRNA of sense RNA SEQ ID NO: 2 (5'-GAAAUCCUGUCAGAUGAUAACUUCA-3') and antisense RNA SEQ ID NO: 3 (antisense UGAAGUUAUCAUCUGACAGGAUUUC; RNA, backbone not given here) | 34±14 | 11±0.5
